Test results taken from the supplement of paper PMC4862054.

Key:
[1] = system: DU-4475; conditions: 72 h
In short: (§1)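 Per-plate normalisation used 0.1 % DMSO and a positive kill control. Breast cancer cell lines (20 µl suspension) were seeded into 384-well plates containing compound at 5 concentrations in 10-fold steps across a compound-specific 10,000-fold range, incubated for 72 h, and read first for CellTox Green fluorescence (485/520 nm), then for CellTiter-Glo luminescence. EC50 was fitted from the dose-response curves and censored at the top concentration.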

[2] = system: HDQ-P1; conditions: 72 h
In short: as §1

[3] = system: MFM-223; conditions: 72 h
In short: as §1

[4] = system: HCC1143; conditions: 72 h
In short: as §1

[5] = system: HCC1599; conditions: 72 h
In short: as §1

[6] = system: DU-4475; conditions: 72 h; remark: listed apart in the source
Description: (§2)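 Drug sensitivity and resistance testing (DSRT) of breast cancer cell lines in 384-well plates, 5 concentrations in 10-fold dilutions over a compound-specific 10,000-fold range. After 72 h, cytotoxicity was read by CellTox Green fluorescence and viability by CellTiter-Glo luminescence (multiplexed), normalised to DMSO and benzethonium chloride controls. EC50 is the inflection point of the fitted dose-response curve (bottom asymptote free, so it can be relative for partial curves) and is censored at the highest tested concentration. Rows with DSS 0 (no meaningful response) were excluded.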

[7] = system: MDA-MB-436; conditions: 72 h
Description: as §2

[8] = system: CAL-51; conditions: 72 h
Description: as §2

[9] = system: MDA-MB-468; conditions: 72 h
Description: as §2

[10] = system: HCC1599; conditions: 72 h; remark: listed apart in the source
Description: as §2

[11] = system: CAL-148; conditions: 72 h
In short: as §1

[12] = system: DU-4475; conditions: 72 h; remark: listed apart in the source
In short: (§3)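 Rows with a drug sensitivity score of zero were dropped, and EC50 was taken from the fitted percent-inhibition dose-response curve, censored at the highest concentration. Data were normalised on each plate to vehicle and a positive kill control and checked by Z'-factor. The assay seeded breast cancer cell lines in 20 µl onto 384-well plates pre-loaded with compound in 5 µl medium for 72 h, then added 2.5 µl CellTiter-Blue for 2 h at 37 °C and read fluorescence at 560/590 nm.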

[13] = system: HDQ-P1; conditions: 72 h; remark: listed apart in the source
In short: as §3

[14] = system: CAL-148; conditions: 72 h; remark: listed apart in the source
In short: as §3

[15] = system: CAL-51; conditions: 72 h; remark: listed apart in the source
In short: as §3

[16] = system: CAL-85-1; conditions: 72 h
In short: as §3

[17] = system: DU-4475; assay: normalised viability (% of control), CellTiter-Blue; higher = more viable cells (about 100 = DMSO control); conditions: incubation time: 72 h
In short: (§4)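 Each value is normalised viability at a single listed concentration of the series. Breast cancer cell lines in 384-well plates were incubated 72 h with compound and read by CellTiter-Blue fluorescence at 560/590 nm, with vehicle set to 100 and a positive kill control to 0 on every plate.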

[18] = system: BT-474; assay: as above; conditions: incubation time: 72 h
In short: as §4

[19] = system: CAL-148; assay: as above; conditions: incubation time: 72 h
In short: as §4

[20] = system: MFM-223; conditions: 72 h; remark: listed apart in the source
Description: as §2

[21] = system: MCF-10A; conditions: 72 h
Description: as §2

[22] = system: BT-549; conditions: 72 h
Description: as §2

[23] = system: BT-474; conditions: 72 h
Description: as §2

[24] = system: Hs578T; conditions: 72 h
Description: as §2

[25] = system: MDA-MB-231; conditions: 72 h
Description: as §2

[26] = system: CAL-85-1; conditions: 72 h; remark: listed apart in the source
Description: as §2

[27] = system: CAL-120; conditions: 72 h
In short: as §3

[28] = system: HCC1937; conditions: 72 h
In short: as §3

[29] = system: MFM-223; conditions: 72 h; remark: listed apart in the source
In short: as §3

[30] = system: BT-549; conditions: 72 h; remark: listed apart in the source
In short: as §3

[31] = system: BT-474; conditions: 72 h; remark: listed apart in the source
In short: as §3

[32] = system: Hs578T; conditions: 72 h; remark: listed apart in the source
In short: as §3

[33] = system: MDA-MB-436; conditions: 72 h; remark: listed apart in the source
In short: as §3

[34] = system: MDA-MB-231; conditions: 72 h; remark: listed apart in the source
In short: as §3

[35] = system: HCC1143; conditions: 72 h; remark: listed apart in the source
In short: as §3

[36] = system: SK-BR-3; conditions: 72 h
In short: as §3

[37] = system: MDA-MB-468; conditions: 72 h; remark: listed apart in the source
In short: as §3

[38] = system: HCC1599; conditions: 72 h; remark: listed apart in the source
In short: as §3

Question: Which “EC50, CellTiter-Glo” value [1] does the source give for NS(=O)(=O)OC[C@@H]1C[C@@H](n2ccc3c(N[C@H]4CCc5ccccc54)ncnc32)C[C@@H]1O [Pevonedistat] here?
Answer: Its value is 137 nM.

Question: What about the “EC50, CellTiter-Glo” value [2] of the same compound?
Answer: The value was 1560 nM.

Question: And the “EC50, CellTiter-Glo” value [3]?
Answer: Its value is 155 nM.

Question: What about the “EC50, CellTiter-Glo” value [4] of the same compound?
Answer: The value was 845 nM.

Question: And the “EC50, CellTiter-Glo” value [5]?
Answer: Its value is 365 nM.

Question: And the “EC50, CellTox Green” value [6]?
Answer: The value was 327 nM.

Question: What about the “EC50, CellTox Green” value [7] of the same compound?
Answer: The value was 1510 nM.

Question: And the “EC50, CellTox Green” value [8]?
Answer: Its value is 82.6 nM.

Question: What about the “EC50, CellTox Green” value [9] of the same compound?
Answer: The value was 436 nM.

Question: And the “EC50, CellTox Green” value [10]?
Answer: Its value is 1840 nM.

Question: For CC[C@]1(O)C[C@H]2CN(CCc3c([nH]c4ccccc34)[C@@](C(=O)OC)(c3cc4c(cc3OC)N(C=O)[C@H]3[C@@](O)(C(=O)OC)[C@H](OC(C)=O)[C@]5(CC)C=CCN6CC[C@]43[C@@H]65)C2)C1 [Vincristine], which “EC50, CellTiter-Glo” value [1] is on record?
Answer: The value was 157 nM.

Question: And the “EC50, CellTiter-Glo” value [2]?
Answer: The value was 2.22 nM.

Question: What about the “EC50, CellTiter-Glo” value [3] of the same compound?
Answer: Its value is 19.9 nM.

Question: And the “EC50, CellTiter-Glo” value [11]?
Answer: The value was 6.48 nM.

Question: What about the “EC50, CellTiter-Glo” value [4] of the same compound?
Answer: Its value is 3.31 nM.

Question: What about the “EC50, CellTiter-Glo” value [5] of the same compound?
Answer: Its value is 11.1 nM.

Question: What about the “EC50, CellTiter-Blue viability” value [12] of the same compound?
Answer: The value was 17.9 nM.

Question: What about the “EC50, CellTiter-Blue viability” value [13] of the same compound?
Answer: The value was 11.2 nM.

Question: And the “EC50, CellTiter-Blue viability” value [14]?
Answer: The value was 8.72 nM.

Question: What about the “EC50, CellTiter-Blue viability” value [15] of the same compound?
Answer: Its value is 26.7 nM.

Question: And the “EC50, CellTiter-Blue viability” value [16]?
Answer: The value was 5.33 nM.

Question: And the normalised viability ([17]; 0.3 nM)?
Answer: The normalised viability was 96.6%.

Question: And the normalised viability ([17]; 3 nM)?
Answer: The normalised viability was 89%.

Question: And the normalised viability ([18]; 1 nM)?
Answer: Its normalised viability is 53.4%.

Question: What about the normalised viability ([18]; 10 nM) of the same compound?
Answer: Its normalised viability is 47.9%.

Question: What about the normalised viability ([19]; 0.3 nM) of the same compound?
Answer: Its normalised viability is 80.4%.

Question: And the normalised viability ([19]; 3 nM)?
Answer: Its normalised viability is 85.3%.

Question: And the “EC50, CellTox Green” value [20]?
Answer: The value was 20 nM.

Question: And the “EC50, CellTox Green” value [21]?
Answer: Its value is 4.1 nM.

Question: What about the “EC50, CellTox Green” value [22] of the same compound?
Answer: The value was 9.1 nM.

Question: What about the “EC50, CellTox Green” value [23] of the same compound?
Answer: The value was 4.19 nM.

Question: And the “EC50, CellTox Green” value [24]?
Answer: The value was 85.1 nM.

Question: What about the “EC50, CellTox Green” value [25] of the same compound?
Answer: Its value is 5.49 nM.

Question: And the “EC50, CellTox Green” value [8]?
Answer: The value was 28.1 nM.

Question: What about the “EC50, CellTox Green” value [26] of the same compound?
Answer: The value was 2.39 nM.

Question: And the “EC50, CellTox Green” value [9]?
Answer: Its value is 9.6 nM.

Question: And the “EC50, CellTox Green” value [10]?
Answer: The value was 489 nM.

Question: And the “EC50, CellTiter-Blue viability” value [27]?
Answer: Its value is 1 nM.

Question: What about the “EC50, CellTiter-Blue viability” value [28] of the same compound?
Answer: Its value is 3.57 nM.

Question: And the “EC50, CellTiter-Blue viability” value [29]?
Answer: Its value is 16.9 nM.

Question: And the “EC50, CellTiter-Blue viability” value [30]?
Answer: The value was 3.8 nM.

Question: What about the “EC50, CellTiter-Blue viability” value [31] of the same compound?
Answer: Its value is 0.3 nM.

Question: What about the “EC50, CellTiter-Blue viability” value [32] of the same compound?
Answer: The value was 2.72 nM.

Question: And the “EC50, CellTiter-Blue viability” value [33]?
Answer: Its value is 8.21 nM.

Question: And the “EC50, CellTiter-Blue viability” value [34]?
Answer: Its value is 2.49 nM.

Question: And the “EC50, CellTiter-Blue viability” value [35]?
Answer: Its value is 1.62 nM.

Question: And the “EC50, CellTiter-Blue viability” value [36]?
Answer: The value was 0.608 nM.

Question: What about the “EC50, CellTiter-Blue viability” value [37] of the same compound?
Answer: The value was 0.6 nM.

Question: What about the “EC50, CellTiter-Blue viability” value [38] of the same compound?
Answer: The value was 27.7 nM.
